The record followed here is US20240228482A1, “COMPOUNDS, COMPOSITIONS AND METHODS OF TREATING CANCER” (HOTSPOT THERAPEUTICS, INC., priority 2021, published 2024).

The IC50 is the concentration needed to halve the response being measured.

The target of the test is T1, CBL-B (Homo sapiens, UniProt Q13191).
T1 construct: GST
T1 sequence (Q13191 whole entry): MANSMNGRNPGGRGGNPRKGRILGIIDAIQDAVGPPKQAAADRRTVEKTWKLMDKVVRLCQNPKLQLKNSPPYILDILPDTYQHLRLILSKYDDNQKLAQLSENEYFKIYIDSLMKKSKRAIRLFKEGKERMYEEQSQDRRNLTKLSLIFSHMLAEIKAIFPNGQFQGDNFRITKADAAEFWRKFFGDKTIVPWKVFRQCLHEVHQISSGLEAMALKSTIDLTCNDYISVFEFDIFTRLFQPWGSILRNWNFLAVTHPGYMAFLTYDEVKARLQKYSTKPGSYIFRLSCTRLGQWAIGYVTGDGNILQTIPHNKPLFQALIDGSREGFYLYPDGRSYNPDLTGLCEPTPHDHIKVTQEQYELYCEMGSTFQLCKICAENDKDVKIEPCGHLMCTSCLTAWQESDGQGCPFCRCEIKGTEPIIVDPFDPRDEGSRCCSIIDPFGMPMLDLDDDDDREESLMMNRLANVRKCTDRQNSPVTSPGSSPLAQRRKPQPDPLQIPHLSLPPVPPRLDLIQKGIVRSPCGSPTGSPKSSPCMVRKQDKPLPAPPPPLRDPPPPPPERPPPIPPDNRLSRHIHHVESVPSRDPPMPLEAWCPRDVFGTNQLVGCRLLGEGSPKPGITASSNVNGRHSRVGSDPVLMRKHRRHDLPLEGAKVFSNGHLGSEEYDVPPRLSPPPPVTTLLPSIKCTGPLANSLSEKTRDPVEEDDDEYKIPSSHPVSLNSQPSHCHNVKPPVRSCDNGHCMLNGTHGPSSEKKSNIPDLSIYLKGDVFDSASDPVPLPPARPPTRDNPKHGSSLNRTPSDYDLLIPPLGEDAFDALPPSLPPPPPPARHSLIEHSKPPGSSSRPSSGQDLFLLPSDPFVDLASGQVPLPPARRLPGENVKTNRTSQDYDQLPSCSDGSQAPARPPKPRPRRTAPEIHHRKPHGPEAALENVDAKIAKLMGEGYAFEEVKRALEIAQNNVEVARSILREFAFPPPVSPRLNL
The test is described as follows: CBL-B TR-FRET IC50 screening (E1/E2 ubiquitination, Biotin-Ubiquitin, Anti GST-Tb donor / Streptavidin-d2 acceptor). The note with it: CBL-B 10 nM final; 11-point titration from 100 uM; binned A-F; read-out: CBL-B TR-FRET activity IC50. It is filed as biochemical. (TR-FRET usually uses a lanthanide donor and a delayed reading to cut background.)
`Cn1cnnc1CC1(c2cccc(-n3cc4c(C(F)(F)F)cc(CN5CC6(COC6)C5)cn4c3=O)c2)COC1` [Compound 128]: the IC50 is less than 100 nM.

As to `Cn1cnnc1CC1(c2cccc(-n3cc4c(C(F)(F)F)cc(CN5CC[C@H](O)C5)cn4c3=O)c2)COC1` [Compound 129], the IC50 was 100 to 300 nM.

As to `Cn1cnnc1CC1(c2cccc(-n3cc4c(C(F)(F)F)cc(CN5CC[C@@H](O)C5)cn4c3=O)c2)COC1` [Compound 130], the IC50 lay in the range of 100 to 300 nM.

Regarding `Cn1cnnc1CC1(c2cccc(-n3cc4c(C(F)(F)F)cc(CN5CC6(CCO6)C5)cn4c3=O)c2)COC1` [Compound 131], the IC50 was less than 100 nM.

`CN(Cc1nncn1C)c1cccc(-n2cc3c(C(F)(F)F)cc(Br)cn3c2=O)c1` [Compound 132]: the IC50 is more than 10000 nM.

Regarding `Cn1cnnc1CC1(c2cccc(-n3cc4c(C(F)(F)F)cccn4c3=O)c2)CN(C(=O)OC(C)(C)C)C1` [Compound 133], the IC50 was more than 10000 nM.

As to `CC(=O)NCc1cc(C(F)(F)F)c2cn(-c3cccc(C4(Cc5nncn5C)COC4)c3)c(=O)n2c1` [Compound 139], the IC50 is 100 to 300 nM.

As for `C[C@H]1CCCN(Cc2cc(C(F)(F)F)c3cn(-c4cccc([C@H](c5nncn5C)C5COC5)c4)c(=O)n3c2)C1` [Compound 140], the IC50 is less than 100 nM.

As to `Cn1cnnc1C(c1cccc(-n2cc3c(C(F)(F)F)cccn3c2=O)c1)C1COC1` (centres unmarked) [Compound 141], the IC50 lay within 1000 to 3000 nM.

In the case of `Cn1cnnc1CC(c1cccc(-n2cc3c(C(F)(F)F)cccn3c2=O)c1)n1cccn1` (centres unmarked) [Compound 142], the IC50 is more than 10000 nM.

Regarding `CC(=O)N1CC(Cc2nncn2C)(c2cccc(-n3cc4c(C(F)(F)F)cccn4c3=O)c2)C1` [Compound 143], the IC50 was more than 10000 nM.

Take `Cn1cnnc1CC1(c2cccc(-n3cc4c(C(F)(F)F)cccn4c3=O)c2)CNC1` [Compound 144]: the IC50 was more than 10000 nM.

As for `[2H]C([2H])([2H])n1cnnc1CC1(c2cccc(-n3cc4c(C(F)(F)F)cc(Br)cn4c3=O)c2)COC1` [Compound 145], the IC50 is 100 to 300 nM.

Turning to `Cn1cnnc1CC1(n2cc(-n3cc4c(C(F)(F)F)cccn4c3=O)cn2)COC1` [Compound 146], the IC50 is more than 10000 nM.

`O=c1n(-c2cccc(C3(Cc4nnco4)COC3)c2)cc2c(C(F)(F)F)cccn12` [Compound 147]: the IC50 is more than 10000 nM.

For the molecule `Cn1cnnc1CC(c1ccccc1)c1cccc(-n2cc3c(C(F)(F)F)cccn3c2=O)c1` (centres unmarked) [Compound 148], the IC50 was more than 10000 nM.

Turning to `Cn1cnnc1CSc1cccc(-n2cc3c(C(F)(F)F)cccn3c2=O)c1` [Compound 149], the IC50 is more than 10000 nM.

For `Cn1cnnc1CC1(c2cccc(-n3cc4c(C(F)(F)F)cc(CN5CCOC(C)(C)C5)cn4c3=O)c2)COC1` [Compound 153], the IC50 was less than 100 nM.

Regarding `C[C@H]1CCCN(Cc2cc(C(F)(F)F)c3cn(-c4cccc(N(C)Cc5nncn5C)c4)c(=O)n3c2)C1` [Compound 155], the IC50 fell in the range of 3000 to 10000 nM.

`Cn1cnnc1[C@H](c1cccc(-n2cc3c(C(F)(F)F)cc(CN4CC[C@H](F)C4)cn3c2=O)c1)C1CCC1` [Compound 158]: the IC50 was in the range of 3000 to 10000 nM.

On to `Cn1cnnc1[C@H](c1cccc(-n2cc3c(C(F)(F)F)cc(CN4CCC(C)(F)CC4)cn3c2=O)c1)C1CCC1` [Compound 160], for which the IC50 lay in the range of 1000 to 3000 nM.

Turning to `Cn1cnnc1CC1(c2cccc(-n3cc4c(C(F)(F)F)cc(CN5CCCC[C@H](O)C5)cn4c3=O)c2)COC1` [Compound 166], the IC50 was less than 100 nM.

For the molecule `Cn1cnnc1CC1(c2cccc(-n3cc4c(C(F)(F)F)cc(CN5CCCC[C@@H](O)C5)cn4c3=O)c2)COC1` [Compound 167], the IC50 is less than 100 nM.

With `Cc1conc1CC1(c2cccc(-n3cc4c(C(F)(F)F)cc(Br)cn4c3=O)c2)COC1` [Compound 168], the IC50 is 100 to 300 nM.

For the molecule `CNS(=O)(=O)c1cc(C(F)(F)F)c2cn(-c3cccc(C4(Cc5nncn5C)COC4)c3)c(=O)n2c1` [Compound 175], the IC50 was 1000 to 3000 nM.

Regarding `Cn1cnnc1CC1(c2cccc(-n3cc4c(C(F)(F)F)cc(C5CCN(CC(F)(F)F)CC5)cn4c3=O)c2)COC1` [Compound 178], the IC50 was 301 to 1000 nM.

In the case of `Cn1cnnc1CC1(c2cccc(-n3cc4c(C(F)(F)F)cc(C5(O)CCNCC5)cn4c3=O)c2)COC1` [Compound 179], the IC50 lay within 100 to 300 nM.

With `Cn1cnnc1CC1(c2cc(Br)cc(-n3cc4c(C(F)(F)F)cccn4c3=O)c2)COC1` [Compound 180], the IC50 lay within 3000 to 10000 nM.

`Cn1cnnc1COc1cccc(-n2cc3c(C(F)(F)F)cc(Br)cn3c2=O)c1` [Compound 181]: the IC50 was more than 10000 nM.

On to `CN1CCC(O)(c2cc(C(F)(F)F)c3cn(-c4cccc(C5(Cc6nncn6C)COC5)c4)c(=O)n3c2)CC1` [Compound 182], for which the IC50 is 301 to 1000 nM.

In the case of `C[C@H]1CCCN(Cc2cc(C(F)(F)F)c3cn(-c4cc(C#N)cc(C5(Cc6nncn6C)COC5)c4)c(=O)n3c2)C1` [Compound 183], the IC50 was less than 100 nM.

With `CC1CC(c2cccc(-n3cc4c(C(F)(F)F)cc(C#N)cn4c3=O)c2)(c2nncn2C)C1` (centres unmarked) [Compound 184], the IC50 is less than 100 nM.

For the molecule `Cc1conc1CC1(c2cccc(-n3cc4c(C(F)(F)F)cc(CN5CCC[C@H](C)C5)cn4c3=O)c2)COC1` [Compound 185], the IC50 was in the range of 100 to 300 nM.

With `CN1CC(Cc2nncn2C)(c2cccc(-n3cc4c(C(F)(F)F)cccn4c3=O)c2)C1` [Compound 188], the IC50 was more than 10000 nM.

With `Cc1cn(C)nc1CC1(c2cccc(-n3cc4c(C(F)(F)F)cc(CN5CCC[C@H](C)C5)cn4c3=O)c2)COC1` [Compound 197], the IC50 was in the range of 3000 to 10000 nM.

On to `[2H]C([2H])([2H])n1cnnc1CC1(c2cccc(-n3cc4c(C(F)(F)F)cc(CN5CCC[C@H](C)C5)cn4c3=O)c2)COC1` [Compound 198], for which the IC50 is less than 100 nM.

In the case of `[2H]C([2H])([2H])n1cnnc1CC1(c2cccc(-n3cc4c(C(F)(F)F)cc(CN5CCO[C@H](C)C5)cn4c3=O)c2)COC1` [Compound 199], the IC50 was less than 100 nM.

On to `C[C@H]1CCCN(Cc2cc(C(F)(F)F)c3cn(-c4cccc(OCc5nncn5C)c4)c(=O)n3c2)C1` [Compound 200], for which the IC50 was more than 10000 nM.

As for `C[C@@H]1CN(Cc2cc(C(F)(F)F)c3cn(-c4cccc(C5(Cc6nncn6C)COC5)c4)c(=O)n3c2)C[C@@H](C)O1` [Compound 201], the IC50 was less than 100 nM.

Regarding `Cn1cnnc1CC1(c2cccc(-n3cc4c(C(F)(F)F)cc(CN5CCCC(O)C5)cn4c3=O)c2)COC1` (centres unmarked) [Compound 206], the IC50 was 301 to 1000 nM.

`Cc1c[nH]nc1CC1(c2cccc(-n3cc4c(C(F)(F)F)cc(CN5CCC[C@H](C)C5)cn4c3=O)c2)COC1` [Compound 207]: the IC50 is less than 100 nM.

As for `CC(=O)N(c1cccc(-n2cc3c(C(F)(F)F)cccn3c2=O)c1)c1nncn1C` [Compound 208], the IC50 is more than 10000 nM.

`[2H]c1nnc(CC2(c3cccc(-n4cc5c(C(F)(F)F)cc(CN6CCC[C@H](C)C6)cn5c4=O)c3)COC2)n1C` [Compound 209]: the IC50 was less than 100 nM.

In the case of `O=c1n(-c2cccc(C3(Cc4nnc5n4CCC5)COC3)c2)cc2c(C(F)(F)F)cccn12` [Compound 210], the IC50 is more than 10000 nM.

As for `Cn1cnnc1N(c1cccc(-n2cc3c(C(F)(F)F)cccn3c2=O)c1)C1COC1` [Compound 211], the IC50 fell in the range of 1000 to 3000 nM.

With `Cn1cnnc1[C@]1(c2cccc(-n3cc4c(C(F)(F)F)cc(C#N)cn4c3=O)c2)C[C@H](C)C1` [Compound 212], the IC50 was 100 to 300 nM.

In the case of `Cn1cnnc1[C@]1(c2cccc(-n3cc4c(C(F)(F)F)cc(CN5CC[C@H](F)C5)cn4c3=O)c2)C[C@@H](C)C1` [Compound 216], the IC50 was less than 100 nM.

As to `Cc1c[nH]nc1[C@@H](c1cccc(-n2cc3c(C(F)(F)F)cc(CN4CCC[C@H](C)C4)cn3c2=O)c1)C1CCC1` [Compound 219], the IC50 was less than 100 nM.

On to `Cc1c[nH]nc1[C@H](c1cccc(-n2cc3c(C(F)(F)F)cc(CN4CCO[C@H](C)C4)cn3c2=O)c1)C1CCC1` [Compound 220], for which the IC50 was 3000 to 10000 nM.

For `Cc1c[nH]nc1[C@@H](c1cccc(-n2cc3c(C(F)(F)F)cc(CN4CCO[C@H](C)C4)cn3c2=O)c1)C1CCC1` [Compound 221], the IC50 was 100 to 300 nM.

In the case of `COC1CCN(Cc2cc(C(F)(F)F)c3cn(-c4cccc([C@H](c5nncn5C)C5CCC5)c4)c(=O)n3c2)CC1` [Compound 225], the IC50 was less than 100 nM.

For `Cn1cnnc1[C@]1(c2cccc(-n3cc4c(C(F)(F)F)cc(CN5CC6(CC6)C5)cn4c3=O)c2)C[C@@H](C)C1` [Compound 228], the IC50 was less than 100 nM.

Regarding `Cn1cnnc1[C@]1(c2cccc(-n3cc4c(C(F)(F)F)cc(CN5CCC(F)CC5)cn4c3=O)c2)C[C@@H](C)C1` [Compound 229], the IC50 is less than 100 nM.

As for `Cn1cnnc1C1(c2cccc(-n3cc4c(C(F)(F)F)cc(Br)cn4c3=O)c2)COC1` [Compound 230], the IC50 is more than 10000 nM.

As for `Cc1cc(-n2cc3c(C(F)(F)F)cc(Br)cn3c2=O)cc(C2(Cc3nncn3C)COC2)c1` [Compound 238], the IC50 fell in the range of 1000 to 3000 nM.

As to `Cc1cc(-n2cc3c(C(F)(F)F)cc(CN4CCC[C@H](C)C4)cn3c2=O)cc(C2(Cc3nncn3C)COC2)c1` [Compound 239], the IC50 was less than 100 nM.

Consider `Cc1c[nH]nc1C1(c2cccc(-n3cc4c(C(F)(F)F)cc(CN5CCO[C@H](C)C5)cn4c3=O)c2)CC2(CC2)C1` [Compound 241], for which the IC50 was 301 to 1000 nM.

`C[C@@H]1CN(Cc2cc(C(F)(F)F)c3cn(-c4cccc([C@H](c5nncn5C)C5CCC5)c4)c(=O)n3c2)CCO1` [Compound 244]: the IC50 is less than 100 nM.

Take `Cn1cnnc1[C@@H](c1cccc(-n2cc3c(C(F)(F)F)cc(CN4CCC(C)(C)C4)cn3c2=O)c1)C1CCC1` [Compound 245]: the IC50 is less than 100 nM.

Take `CC(C)CN(C)Cc1cc(C(F)(F)F)c2cn(-c3cccc([C@H](c4nncn4C)C4CCC4)c3)c(=O)n2c1` [Compound 246]: the IC50 is less than 100 nM.

For the molecule `C[C@H]1CCN(Cc2cc(C(F)(F)F)c3cn(-c4cccc([C@H](c5nncn5C)C5CCC5)c4)c(=O)n3c2)C1` [Compound 247], the half-maximal inhibitory concentration (IC50) was less than 100 nM.

For `C[C@@H]1CCN(Cc2cc(C(F)(F)F)c3cn(-c4cccc([C@H](c5nncn5C)C5CCC5)c4)c(=O)n3c2)C1` [Compound 248], the IC50 was less than 100 nM.
